Literature values in patent US20210113561A1, “PHARMACEUTICAL COMPOSITION, METHODS FOR TREATING AND USES THEREOF” (Boehringer Ingelheim International GmbH, priority 2018, published 2021).

Key:
[1] = metformin on its own, in the diabetic
[2] = patients with type 2 diabetes mellitus at high risk for cardiovascular events
[3] = target: T1, SGLT2 (Homo sapiens, UniProt P31639)
T1 sequence (P31639 1-672): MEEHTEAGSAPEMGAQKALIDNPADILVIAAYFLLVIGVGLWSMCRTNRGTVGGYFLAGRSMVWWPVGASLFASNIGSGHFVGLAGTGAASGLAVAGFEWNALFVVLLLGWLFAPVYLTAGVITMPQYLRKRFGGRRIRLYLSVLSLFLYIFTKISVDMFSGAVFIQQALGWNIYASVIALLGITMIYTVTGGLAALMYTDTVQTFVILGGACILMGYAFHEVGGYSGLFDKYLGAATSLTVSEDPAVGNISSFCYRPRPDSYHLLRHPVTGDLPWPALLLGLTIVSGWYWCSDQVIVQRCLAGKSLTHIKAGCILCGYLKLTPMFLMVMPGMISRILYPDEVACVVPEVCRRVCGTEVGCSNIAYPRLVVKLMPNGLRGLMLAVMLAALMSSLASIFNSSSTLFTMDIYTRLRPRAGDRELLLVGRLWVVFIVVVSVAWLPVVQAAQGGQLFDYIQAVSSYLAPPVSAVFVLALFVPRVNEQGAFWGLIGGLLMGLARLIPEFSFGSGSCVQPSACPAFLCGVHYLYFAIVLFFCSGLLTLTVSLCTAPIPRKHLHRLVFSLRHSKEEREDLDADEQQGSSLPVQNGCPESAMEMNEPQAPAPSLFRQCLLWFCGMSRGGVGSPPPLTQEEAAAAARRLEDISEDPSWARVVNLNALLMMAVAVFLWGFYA

| Structure (SMILES) | average improvement in the HbA1c value [1] | rates of death from any cause [2] | rates of the primary composite cardiovascular outcome [2] | selectivity SGLT2 versus SGLT1 [3] |
| --- | --- | --- | --- | --- |
| CN(C)C(=N)N=C(N)N [metformin] | 1.0-1.5% |  |  |  |
| OC[C@H]1O[C@@H](c2ccc(Cl)c(Cc3ccc(O[C@H]4CCOC4)cc3)c2)[C@H](O)[C@@H](O)[C@@H]1O [empagliflozin] |  | significantly lower rates | significantly lower rates | high selectivity |
